Assay results from patent US20130202681A1 (priority 2012, published 2013).
Where two headings read alike, the source gives them in different places.

Legend:
[1] = liver, water control = 0%
[2] = mouse, in vivo; cited from earlier work
[3] = in vivo; cited from earlier work
[4] = system: Mycobacterium tuberculosis; conditions: 10 millimolar

SMILES	toxin removal ([1]; intravenous)	toxin removal ([1]; oral)	decrease of incidence or size of hepatic nodules or tumors [2]	absorption after oral ingestion [3]	CFU/ml reduced to [4]
N[C@@H](CCC(=O)N[C@@H](CS)C(=O)NCC(=O)O)C(=O)O [Plain glutathione, glutathione]	70%	10%	no benefit	not absorbed	
CC(=O)N[C@@H](CS)C(=O)O [NAC, N-acetyl cysteine]					8,000 CFU/ml
